Laboratory results as given in ChEMBL document CHEMBL1201862, “PubChem BioAssay data set” (2004).
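In this assay, cells in 96-well plates receive the compound at five concentrations for 48 hours. Endpoints are linearly interpolated between the surrounding concentrations. GI50 is the concentration that inhibits growth by half.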 Activity calls are given as the source filed them. No stated cut-off is given here; in the data, active = GI50 up to about 1.1 µM and inactive = higher.

Key:
Test in all cases: growth of human tumour cells (NCI), 48 h
786-0 = system: 786-0
A498 = system: A498
A549 = system: A549
ACHN = system: ACHN
BT-549 = system: BT-549
CAKI-1 = system: CAKI-1
CCRF-CEM = system: CCRF-CEM
COLO 205 = system: COLO 205
DU-145 = system: DU-145
EKVX = system: EKVX
HCC 2998 = system: HCC 2998
HCT-116 = system: HCT-116
HCT-15 = system: HCT-15
HL-60 = system: HL-60
HOP-62 = system: HOP-62
HOP-92 = system: HOP-92
HT-29 = system: HT-29
Hs-578T = system: Hs-578T
IGROV-1 = system: IGROV-1
K562 = system: K562
KM12 = system: KM12
LOX IMVI = system: LOX IMVI
M14 = system: M14
MCF7 = system: MCF7
MDA-MB-231 = system: MDA-MB-231
MDA-MB-435 = system: MDA-MB-435
MDA-N = system: MDA-N
MOLT-4 = system: MOLT-4
Malme-3M = system: Malme-3M
NCI-H226 = system: NCI-H226
NCI-H23 = system: NCI-H23
NCI-H460 = system: NCI-H460
NCI-H522 = system: NCI-H522
NCI/ADR-RES = system: NCI/ADR-RES
OVCAR-3 = system: OVCAR-3
OVCAR-4 = system: OVCAR-4
OVCAR-5 = system: OVCAR-5
OVCAR-8 = system: OVCAR-8
PC-3 = system: PC-3
RPMI-8226 = system: RPMI-8226
RXF 393 = system: RXF 393
SF-268 = system: SF-268
SF-295 = system: SF-295
SF-539 = system: SF-539
SK-MEL-28 = system: SK-MEL-28
SK-MEL-2 = system: SK-MEL-2
SK-MEL-5 = system: SK-MEL-5
SK-OV-3 = system: SK-OV-3
SN12C = system: SN12C
SNB-19 = system: SNB-19
SNB-75 = system: SNB-75
SR = system: SR
SW-620 = system: SW-620
T47D = system: T47D
TK-10 = system: TK-10
U-251 = system: U-251
UACC-257 = system: UACC-257
UACC-62 = system: UACC-62
UO-31 = system: UO-31

Question: What does the source list for `O=C1C(Cl)=C(NCCO)C(=O)c2c(O)ccc(O)c21`?
Answer: GI50 (786-0): 5530 nM (inactive); GI50 (A498): 1360 nM (inactive); GI50 (A549): 1870 nM (inactive); GI50 (ACHN): 5010 nM (inactive); GI50 (BT-549): 4260 nM (inactive); GI50 (CAKI-1): > 10000 nM (inactive); GI50 (CCRF-CEM): 4140 nM (inactive); GI50 (COLO 205): 1740 nM (inactive); GI50 (DU-145): 2360 nM (inactive); GI50 (EKVX): 6370 nM (inactive); GI50 (HCC 2998): 3100 nM (inactive); GI50 (HCT-116): 1950 nM (inactive); GI50 (HCT-15): 2530 nM; GI50 (HL-60): 2600 nM (inactive); GI50 (HOP-62): 3280 nM (inactive); GI50 (HOP-92): > 10000 nM (inactive); GI50 (HT-29): 2480 nM (inactive); GI50 (Hs-578T): 6560 nM (inactive); GI50 (IGROV-1): 2490 nM (inactive); GI50 (K562): 2590 nM (inactive); GI50 (KM12): 2050 nM (inactive); GI50 (LOX IMVI): 1640 nM (inactive); GI50 (M14): 2160 nM (inactive); GI50 (MCF7): 1930 nM (inactive); GI50 (MDA-MB-231): 1950 nM (inactive); GI50 (MDA-MB-435): 2170 nM (inactive); GI50 (MDA-N): 1770 nM (inactive); GI50 (MOLT-4): 3330 nM (inactive); GI50 (Malme-3M): 1400 nM (inactive); GI50 (NCI-H226): > 10000 nM (inactive); GI50 (NCI-H23): 2600 nM (inactive); GI50 (NCI-H460): 1850 nM (inactive); GI50 (NCI-H522): > 10000 nM (inactive); GI50 (NCI/ADR-RES): 5180 nM (inactive); GI50 (OVCAR-3): 2760 nM (inactive); GI50 (OVCAR-4): 600 nM (active); GI50 (OVCAR-5): 2370 nM (inactive); GI50 (OVCAR-8): 3840 nM (inactive); GI50 (PC-3): 2780 nM (inactive); GI50 (RPMI-8226): 3120 nM (inactive); GI50 (RXF 393): 1960 nM (inactive); GI50 (SF-268): 3970 nM (inactive); GI50 (SF-295): 1950 nM (inactive); GI50 (SF-539): 2520 nM (inactive); GI50 (SK-MEL-28): 1920 nM (inactive); GI50 (SK-MEL-2): 3020 nM (inactive); GI50 (SK-MEL-5): 1410 nM (inactive); GI50 (SK-OV-3): > 10000 nM (inactive); GI50 (SN12C): 2560 nM (inactive); GI50 (SNB-19): 5330 nM (inactive); GI50 (SNB-75): 4380 nM (inactive); GI50 (SR): 2410 nM (inactive); GI50 (SW-620): 2370 nM (inactive); GI50 (T47D): 4240 nM (inactive); GI50 (TK-10): > 10000 nM (inactive); GI50 (U-251): 6270 nM (inactive); GI50 (UACC-257): 1330 nM (inactive); GI50 (UACC-62): 1700 nM (inactive); GI50 (UO-31): 6700 nM (inactive)

Question: Which results are given for `c1ccc(/C(=N\Nc2nc3ccccc3s2)c2ccccn2)cc1`?
Answer: GI50 (786-0): 2360 nM (inactive); GI50 (A498): 6150 nM (inactive); GI50 (A549): 3090 nM (inactive); GI50 (ACHN): 815 nM (active); GI50 (BT-549): 18800 nM (inactive); GI50 (CAKI-1): 2720 nM (inactive); GI50 (CCRF-CEM): 60.3 nM (active); GI50 (COLO 205): 1370 nM (inactive); GI50 (DU-145): 3750 nM (inactive); GI50 (EKVX): 410 nM (active); GI50 (HCC 2998): 14400 nM (inactive); GI50 (HCT-116): 1880 nM (inactive); GI50 (HCT-15): 622 nM; GI50 (HL-60): 792 nM (active); GI50 (HOP-62): 6470 nM (inactive); GI50 (HOP-92): 7310 nM (inactive); GI50 (HT-29): 1870 nM (inactive); GI50 (Hs-578T): 13200 nM (inactive); GI50 (IGROV-1): 4690 nM (inactive); GI50 (K562): 1720 nM (inactive); GI50 (KM12): 3560 nM (inactive); GI50 (LOX IMVI): 4040 nM (inactive); GI50 (M14): 3140 nM (inactive); GI50 (MCF7): 317 nM (active); GI50 (MDA-MB-231): 4740 nM (inactive); GI50 (MDA-MB-435): 5680 nM (inactive); GI50 (MDA-N): 4940 nM (inactive); GI50 (MOLT-4): 346 nM (active); GI50 (Malme-3M): 649 nM (active); GI50 (NCI-H226): 3870 nM (inactive); GI50 (NCI-H23): 6820 nM (inactive); GI50 (NCI-H460): 1970 nM (inactive); GI50 (NCI-H522): 2710 nM (inactive); GI50 (NCI/ADR-RES): 2700 nM (inactive); GI50 (OVCAR-3): 94.8 nM (active); GI50 (OVCAR-4): 2660 nM (inactive); GI50 (OVCAR-5): 3910 nM (inactive); GI50 (OVCAR-8): 2520 nM (inactive); GI50 (PC-3): 5700 nM (inactive); GI50 (RPMI-8226): 1770 nM (inactive); GI50 (RXF 393): 4300 nM (inactive); GI50 (SF-268): 3130 nM (inactive); GI50 (SF-295): 5190 nM (inactive); GI50 (SF-539): 7000 nM (inactive); GI50 (SK-MEL-28): 8130 nM (inactive); GI50 (SK-MEL-2): 4080 nM (inactive); GI50 (SK-MEL-5): 2490 nM (inactive); GI50 (SK-OV-3): 8280 nM (inactive); GI50 (SN12C): 2790 nM (inactive); GI50 (SNB-19): 5770 nM (inactive); GI50 (SNB-75): 19700 nM (inactive); GI50 (SR): 891 nM (active); GI50 (SW-620): 3180 nM (inactive); GI50 (T47D): < 24.8 nM (active); GI50 (TK-10): 1380 nM (inactive); GI50 (U-251): 2840 nM (inactive); GI50 (UACC-257): 2920 nM (inactive); GI50 (UACC-62): 3660 nM (inactive); GI50 (UO-31): 84.3 nM (active)
